Results as given in paper PMC10033663, “Acute pharmacological profile of 2C-B-Fly-NBOMe in male Wistar rats—pharmacokinetics, effects on behaviour and thermoregulation” (Frontiers in Pharmacology, 2023).
“Also recorded” adds a separate entry of the source.

How the values were obtained:
[1] = test system: male Wistar rats; assay: Thermoregulation (rectal temperature); assay type: in vivo; details: 5 mg/kg s. c.
Protocol: For the assessment of rectal temperature changes, rats were housed individually or in groups of five per cage. They were treated with 2C-B-Fly-NBOMe (5 mg/kg) or ctrl solution s. c. at 9:00 h. During the measurements, each rat was briefly immobilized in a plexiglass tube and then returned to its home cage. In total, 14 measurements were performed: […] for setting the baseline temperature, and then 4 subsequent 30 min measurements (09:30–11:00 h) and 6 hourly measurements (12:00–17:00 h).
Data from thermoregulatory experiments were analysed using 2 × 2 × 14 mixed factorial design with drug treatment (2C-B-Fly-NBOMe at 5 mg/kg or ctrl) and home cage conditions (individually and group-housed animals) as between-subjects factors and time (14 measurements) as a within-subjects factor. The baseline temperatures of animals were compared in the same manner.

[2] = test system: male Wistar rats; assay: Prepulse inhibition (PPI) of acoustic startle response (ASR); assay type: in vivo
Protocol: The effect of 2C-B-Fly-NBOMe on sensorimotor gating was evaluated by a PPI of ASR test. Two identical startle chambers (SR-LAB, San Diego Instruments, California) were used, each containing a sound-proof, evenly lit and ventilated enclosure with a plexiglass stabilimeter (8.7 cm inner diameter), a piezoelectric accelerometer for detecting amplitudes of the ASR, and a high-frequency loudspeaker producing acoustic stimuli. Amplitudes of the ASR were digitized for subsequent analysis. The experimental design was based on our previous studies ([Štefková et al., 2017]; [Šíchová et al., 2018]). Two days before the experiment, the animals were habituated to the startle chambers with a background white noise (75 dB) for 5 min, followed by six presentations of pulse-alone stimuli (125 dB, 40 ms) with pseudorandomized inter-stimulus intervals. […]
Habituation was calculated by the percentage reduction in the ASR from the initial six baseline trials to the final six trials. PPI was calculated as [100 - (mean response for the prepulse - pulse trial/startle response for the single pulse trials) × 100]. […]
(§1) Locomotor activity in OFT (mean trajectory length across 5 min blocks) was evaluated using a 2 × 4 × 6 mixed factorial ANOVA with temporal testing onset (15 or 60 min) and drug treatment (2C-B-Fly-NBOMe 0.2, 1, or 5 mg/kg or ctrl) as between-subjects factors, and time blocks (6 × 5 min intervals) as a within-subjects factor. Spatial distribution of animal movement in OFT (thigmotaxis and T center) and PPI parameters (habituation, ASR and % of PPI) were each analysed using a 2 × 4 factorial ANOVA with temporal testing onset (15 or 60 min) and drug treatment (2C-B-Fly-NBOMe 0.2, 1, or 5 mg/kg or ctrl) as between-subjects factors.

[3] = test system: male Wistar rats; assay: Open field test (OFT); assay type: in vivo
Protocol: OFT was performed in a black square plastic arena (80 × 80 × 40 cm) in an evenly lit and sound-proof testing room. Rats were individually placed into the centre and allowed to explore the arena for 30 min while their behaviour was recorded. The experimental arena was cleaned with 70% ethanol after each subject. Arena was virtually divided into a 5 × 5 grid of identical squares; 16 squares were located next to the walls (peripheral zone) and 9 squares were in the centre (central zone). Software EthoVision XT 14.0 software (Noldus, Netherlands) was used to capture raw data used in the calculation of the following dependent variables: trajectory length (cm; corrected for deviations of <3 cm) and its temporal dynamics in 5 min intervals; thigmotaxis (∑fperipheral zones/∑fall zones, f = frequency of appearance in the zone) reflecting the probability of appearance in the peripheral zone; Tcenter reflecting time spent in the centre of the arena (∑timecentral zones).
as §1

[4] = ref Richter et al. (2020); cited from earlier work
[5] = test system: 5-HT2A receptor; parameters: method as in Ettrup et al., 2011; details: GF-62 cells; among the examined NBOMes; ref Ettrup et al., 2011; cited from earlier work
[6] = test system: 5-HT2A receptor; parameters: method as in Ettrup et al., 2011; details: among the examined NBOMes; ref Ettrup et al., 2011; cited from earlier work
[7] = PET; ref Ettrup et al., 2011; cited from earlier work
[8] = 0.2, 1 and 5 mg/kg s. c., 15 and 60 min onset

COc1ccccc1CNCCc1c2c(c(Br)c3c1OCC3)OCC2 [2C-B-Fly-NBOMe]
trend of hypothermic reaction in group-housed animals ([1]; animals housed in groups): not in animals housed in groups | hypothermic trend in individually housed animals ([1]; individually housed, first 90 min after application): the statistical difference was not significant | effect of the treatment on body temperature (ANOVA) ([1]; p < 0.05): significant effect of the treatment | percentage of PPI ([2]; 0.2, 1 and 5 mg/kg s. c., ANOVA treatment factor): not by treatment | Habituation of ASR ([2]; 0.2, 1 and 5 mg/kg s. c., p < 0.05): significantly affected by drug treatment | ASR versus ctrl ([2]; all doses (0.2, 1, 5 mg/kg s. c.), 15 and 60 min onset, p < 0.001): strongly disrupted; also recorded: significantly diminished ASR; also recorded: strongly attenuates ASR | Tcentre (time spent in the centre of the arena) [3, 8]: not affected | thigmotaxis [3, 8]: not affected | total trajectory length (locomotor activity) versus ctrl ([3]; 0.2, 1 and 5 mg/kg s. c., 15 and 60 min testing onset): dose-dependently reduced; also recorded: significant differences in all remaining groups versus ctrl except for 0.2 mg/kg of 2C-B-Fly-NBOMe in the 60 min onset | Locomotor habituation ([3]; 0.2, 1 and 5 mg/kg s. c., both testing onsets): dose-dependently disturbed | locomotion in 5 min time blocks versus ctrl ([3]; 15 min onset, 1 mg/kg s. c., p < 0.05): persisted until the fourth block | locomotion in 5 min time blocks versus ctrl ([3]; 15 min onset, 5 mg/kg s. c., p < 0.05–0.001): significant hypolocomotion during the whole session | locomotion in 5 min time blocks versus ctrl ([3]; 15 min onset, all the doses (0.2, 1, 5 mg/kg s. c.), p < 0.001): significantly decreased activity in the first three blocks | locomotion in 5 min time blocks versus ctrl ([3]; 60 min onset, 1 mg/kg and 5 mg/kg groups, p < 0.01–0.001): persisted to the fifth block | locomotion in 5 min time blocks versus ctrl ([3]; 60 min onset, all groups (0.2, 1, 5 mg/kg s. c.), p < 0.05–0.001): reduced activity in the first two blocks | number of phase I metabolites [4]: five | number of phase II metabolites [4]: one | binding affinity to 5-HT2A receptor [5]: highest binding affinity | intrinsic activity [6]: the lowest | cortical uptake [7]: highest cortical uptake among the examined NBOMes | penetration of brain tissue [7]: readily penetrated the brain tissue
